Results taken from ChEMBL document CHEMBL3507680, “University of Dundee, Gates Library screen for HepG2 cell viability”.

test: Human HepG2 cell viability assay in 384 well format; type: toxicity, cell-based; design: dose 125 nL, time 70.5 hour; concentration not given beside the values; conditions: HepG2 cells, read-out: Inhibition

In order of rising cytotoxicity at 70.5 h:
1. CC(O)CNC(=O)CCc1nc2ncccc2[nH]1 (configuration not stated)  -29.9%
2. Cn1cnc2c1CCN(c1ccnc(-c3ccccc3)n1)C2  -18.3%
3. COc1cc(NCCNC(=O)c2ccc3[nH]ccc3c2)cc(OC)c1  -13.8%
4. Cn1ncc2c(N3CC(N4CCCCC4)C3)nc(-c3ccncc3)nc21  -12.9%
5. Cc1ncc(C(=O)N2CCCC(n3cccn3)C2)s1 (configuration not stated)  -11.8%
6. Cn1c(NCC(=O)N2CCCCC2)c(C#N)c(=O)n(C)c1=O  -11.6%
7. CNc1ncc(CN(C)C(=O)CCc2[nH]nc3c2CCCC3)cn1  -11.5%
8. CCn1cc(NC(=O)C2CCN(Cc3nc(C)c(C)o3)CC2)cn1  -11.4%
9. Cc1ccc(N2C[C@H](C(=O)N3CCOCC3)[C@@H]3CCO[C@@H]3C2)nn1  -11.3%
10. c1csc(CN2CCO[C@H]3[C@H](OCCN4CCCC4)CC[C@@H]32)n1  -11.1%
11. CCCc1c(C(=O)N2CCN(c3ncccn3)CC2)cnn1C  -10.6%
12. CC(NC(=O)NCCN1CCCCCC1=O)c1ccc(Cl)s1 (configuration not stated)  -10.6%
13. CN(c1ccncn1)C1CC2(CCN(C(=O)CCc3cccs3)C2)C1 (configuration not stated)  -10.3%
14. CCN(CC)c1nc2ccsc2c(=O)n1CCC(=O)NCc1cccs1  -9.85%
15. Cc1cccc(O[C@H]2COCCN(C3CCOCC3)C2)n1  -9.61%
16. Cc1nc[nH]c1CN1CCCn2nc(CN3CCC(F)(F)CC3)cc2C1  -9.44%
17. COCC(=O)N1CCOC2(CCCN(c3cnccn3)C2)C1 (configuration not stated)  -9.25%
18. Cc1cnn(CC2CCCN2C(=O)c2cn(C)c3ccccc23)c1 (configuration not stated)  -9.04%
19. CCn1cc(NC(=O)NCC(c2cccc(OC)c2)N(C)C)cn1 (configuration not stated)  -8.98%
20. Cc1ncncc1C(=O)N1CCCN(Cc2nccn2C(C)C)CC1  -8.96%
21. C[C@@H]1CN(Cc2nc(C(N)=O)no2)CC[C@@]1(O)C1CCOCC1  -8.91%
22. CSc1cccc(CN2CCC(CCC(=O)Nc3ccccc3)CC2)c1  -8.78%
23. CCN(CC)c1ccc(-c2ccc(C)c(S(N)(=O)=O)c2)nn1  -8.22%
24. Cc1n[nH]c(C)c1C1CCCN1C(=O)NCCSC(C)(C)C (configuration not stated)  -7.87%
25. Cc1cccc2sc(NC(=O)CN3CCCC4(CC3)CNC(=O)O4)nc12 (configuration not stated)  -7.84%
26. CC(C)(C)c1ccc(OCc2nc3c(c(=O)[nH]2)CCNC3)cc1  -7.79%
27. C1CC(c2nnc(CN3CCCC3c3noc(C4CC4)n3)o2)C1 (configuration not stated)  -7.54%
28. O=C(CCCc1ncc(-c2ccccc2)o1)N1CCN(CCO)CC1  -7.53%
29. COc1ccc(F)c(CN2CC(=O)N(c3ccccc3C)CC2C)c1 (configuration not stated)  -7.03%
30. Cn1c(=O)n(C)c2cc(NS(=O)(=O)Cc3cccc(F)c3)ccc21  -6.9%
31. O=C([C@@H]1CC[C@@H]2[C@@H](CCN2Cc2ccncc2)O1)N1CCCCO1  -6.89%
32. Cc1ccc(C)c(NC(=O)N2C[C@H](N(C)C)C[C@H]2CO)c1  -6.76%
33. COCc1cc(CN(C)C(=O)CCC(=O)Nc2cc(C)ccc2F)n[nH]1  -6.52%
34. O=C(c1cscn1)N1C[C@@H]2[C@@H](C1)OCC(=O)N2CC1CCCC1  -6.35%
35. Cc1n[nH]c2ncc(CNC3CCN(Cc4ccccn4)CC3)cc12  -6.34%
36. CN1CCN(Cc2n[nH]c(=O)n2CC2CCCCC2)CC1  -6.17%
37. O=C(C1CCOCC1)N1C[C@H]2CC[C@@H]1CN(C1Cc3ccccc3C1)C2  -5.9%
38. CCN(Cc1nc2c(cnn2C)c(=O)[nH]1)c1cccc(F)c1  -5.89%
39. NCCc1cn(Cc2ccccn2)c2ccccc12  -5.82%
40. Cc1ccc(CS(=O)(=O)N2CC[C@H]3[C@H]2CCN3C)cc1  -5.67%
41. Cn1ccnc1CN1CCC2(CC1)COCCN(c1ncccn1)C2  -5.62%
42. CC(=O)N1C[C@@H](c2ccsc2)[C@@H]2CN(CC3CCCCC3)CC[C@@H]21  -5.59%
43. CN1C[C@@H]2CN(C(=O)C3CC=CC3)C[C@@H]2C1=O  -5.58%
44. CNc1cc(C2CCCN2Cc2ccc(OCC(=O)O)cc2)ccn1 (configuration not stated)  -5.44%
45. CSCCC(=O)N1CCC(c2nccn2Cc2cscn2)CC1  -5.4%
46. Cc1cc(C)n(CC2CCCN2C(=O)CCCc2ccccn2)n1 (configuration not stated)  -5.04%
47. Cc1nc(C)c(C(=O)N2CCc3cc(F)ccc3C2C)o1 (configuration not stated)  -4.82%
48. Cc1nc(CN2CCc3ncnc(-c4ccc(F)cc4)c3CC2)cs1  -4.74%
49. COC(=O)CN1N=C(C(=O)N2CCCC2)S(=O)(=O)c2ccccc21  -4.54%
50. CCN(CC)Cc1cn2c(n1)CN(C1CCOC1)CC2 (configuration not stated)  -4.42%
51. CCc1cnc(C(C)NC(=O)N2CCCN(CC(F)F)CC2)s1 (configuration not stated)  -4.42%
52. CCOC(=O)CNc1nc(COC)nc2c1cnn2C  -4.25%
53. CC(C)OCCNC(=O)C1CCC(=O)N(C2CCCC2)C1 (configuration not stated)  -4.22%
54. Cc1cccc2c1cnn2CCCNC(=O)CCCC(=O)O  -4.18%
55. COCCOCCSc1nnc(Cc2ccccc2F)o1  -4.09%
56. CCc1ccc(S(=O)(=O)Nc2cc(C(=O)O)ccc2F)s1  -3.74%
57. CCc1ccc(C2CC(=O)Nc3cc(OC)c(NS(C)(=O)=O)cc32)o1 (configuration not stated)  -3.63%
58. CNC(=O)C1(c2cnccn2)CCCN1C(=O)c1ccccc1F (configuration not stated)  -3.62%
59. CCc1cnc(C)nc1NCCc1nc(N)cc(O)n1  -3.5%
60. Fc1ccccc1CN1CCCC2(CCN(c3ncccn3)CC2)C1  -3.46%
61. CCN1CC(=O)NCC12CCN(C(=O)c1ccco1)C2 (configuration not stated)  -3.25%
62. CN1CCCNC(=O)C12CCN(C(=O)c1ccc3[nH]cnc3c1)CC2  -3.14%
63. Cc1cnc(CNC(=O)N(Cc2ccccc2)CC(C)(C)O)s1  -3.13%
64. CC(=O)c1ccc(C(=O)N2C[C@@H]3CC[C@H](C2)N(CC2CCC2)C3)s1  -3.03%
65. CC(C)(C)c1nc(CN(Cc2cccs2)C2CCS(=O)(=O)C2)cs1 (configuration not stated)  -2.81%
66. Cc1occc1C(=O)N1CCC2(CCC(=O)N(CC(N)=O)C2)CC1  -2.77%
67. CN(C)c1ncc(CNC(=O)Nc2ccc(C(F)(F)F)cc2)n1C  -2.76%
68. CCC(=O)NCC(=O)NC(Cc1ccccc1)c1sccc1C (configuration not stated)  -2.67%
69. CCC1CCCCCN1C(=O)c1nnc2ccccc2c1N (configuration not stated)  -2.66%
70. FC(F)(F)c1cc(C2CCCN(c3ncccn3)C2)n2ccnc2n1 (configuration not stated)  -2.5%
71. O=C(Nc1ncc[nH]1)c1cc(-c2cccnc2)n[nH]1  -2.08%
72. CCOCCN1CCN(Cc2nnc(C3CC3)o2)CC1  -2.06%
73. O=C(Cc1ccc(F)cc1)N1CCn2c(Cn3cncn3)cnc2C1  -1.65%
74. CC(Cn1cncc1-c1cnn(Cc2ccccc2)c1)N1CCCCC1 (configuration not stated)  -1.65%
75. Cc1ccc(-n2c(O)cc(C)c(C#N)c2=O)c(C)c1  -1.45%
76. CS(=O)(=O)NCc1cc(=O)n2c(n1)CN(Cc1ccco1)CCC2  -1.24%
77. Cc1ncc2c(n1)CN(Cc1cccc3c1OCCO3)CC2  -1.1%
78. COc1ccc(C)cc1NC(=O)Nc1cnc(N2CCOCC2)nc1  -0.928%
79. CC(C)NC(=O)CCNC(=O)Nc1cnn(-c2ccccc2F)c1  -0.437%
80. CC(=O)N1CCCN(C(=O)NCCCn2cncn2)CC1  -0.358%
81. CNS(=O)(=O)c1ccc(CCC(=O)NCc2cccc(OC)c2)cc1  -0.152%
82. O=C(NCC1CCCCO1)c1ccc(-c2cccs2)[nH]c1=O (configuration not stated)  -0.0205%
83. Nc1nc2c(c(=O)[nH]1)CCN(C(=O)c1ccccc1N1CCCC1)C2  0.043%
84. O=C(CC1CCCCC1)NC1CCCc2nc(N3CCOCC3)ncc21 (configuration not stated)  0.0844%
85. Cc1ccc(O)c(C(=O)N2C[C@@H](C(=O)O)[C@H](c3ccccc3)C2)c1  0.313%
86. Cc1ccc(NC2CCN(C(=O)c3cc(C)no3)CC2)nn1  0.395%
87. CC(Cn1cccn1)NCc1csc2c1CCCC2 (configuration not stated)  0.457%
88. Cc1ccnn1CCC(=O)N1CCCC1c1cc2cccnc2[nH]1 (configuration not stated)  1.14%
89. CN1C(=O)C(c2cccnc2)CC12CCN(Cc1nccs1)CC2 (configuration not stated)  1.71%
90. O=C1OC2(CCN(CC3CCCO3)CC2)CN1CCc1ccccc1 (configuration not stated)  2.25%
91. O=C1CC(c2ccccc2Br)c2sc(N3CCOCC3)nc2N1 (configuration not stated)  2.49%
92. CCOCCn1nc(C)cc1C(=O)N1CC[C@](C)(O)C(C)(C)C1  2.52%
93. O=C1NC2(CCN(C(=O)c3ccccc3)CC2)CC1c1cccnc1 (configuration not stated)  2.71%
94. CCCn1nc(-c2nc(C3CC3)no2)ccc1=O  5.03%
95. COc1cc(CNCc2c(C)nn(C)c2N(C)C)ccc1OCCO  5.42%
96. Cc1nc(CNC(=O)CCN2CCN(c3ccccn3)CC2)oc1C  6.4%
97. CC(=O)N1CCc2nc3sc(C(N)=O)c(N)c3c(C(F)(F)F)c2C1  6.92%
98. CCCC(=O)Nc1ccc(CC(=O)N(CC)CC2CCCCO2)cc1 (configuration not stated)  8.7%
99. Cc1cccc(C(=O)N2CC[C@]3(C[C@H](OCc4ccccn4)CO3)C2)c1  11.1%
100. Cc1ccc(N2CCC3(CCN(C(=O)N(C)C)CC3)CC2)nn1  11.4%
101. CCOC1COC2(CCN(CC3CC3)CC2)C1 (configuration not stated)  11.6%
102. Cc1cc(C)cc(-c2cc(C3CCOC3)c(C#N)c(N)n2)c1 (configuration not stated)  12.8%
103. CCCN(C(=O)c1cnc(C)cn1)c1nc2c(s1)CCc1c-2cnn1C  14.9%
104. Cc1nc(C(=O)N2CCC(c3cc(CCO)n(C)n3)C2)co1 (configuration not stated)  16.6%
105. O=C(O)c1ccnc(-c2ccnc(COc3cccc(F)c3)n2)c1  16.7%
106. CS(=O)(=O)c1ccc(CN2CCCCC2c2ccc(F)cc2)cc1 (configuration not stated)  17.4%
107. CC[C@@]1(O)CCN(c2ncc(Cl)cc2C(F)(F)F)C[C@H]1O  20.8%
108. CN(Cc1ccc(-n2cccn2)cc1)C[C@@H]1CCCN2CCCC[C@H]12  24.9%
109. CC(C)C(=O)N1CCN(Cc2cc(-c3ccncc3)nn2C)CC1  31.9%
110. COCCN(C)C(=O)Nc1ccc2c(ccn2CCOC)c1  32.1%
111. Cc1noc2ncc(C(=O)N3CCCC3c3ccncc3)cc12 (configuration not stated)  33.6%
112. NCCO[C@H]1C[C@@H](O)C12CCN(C1Cc3ccccc3C1)CC2  34.2%
